According to ChEMBL document CHEMBL3507680, “University of Dundee, Gates Library screen for HepG2 cell viability”:

Experiment: Human HepG2 cell viability assay in 384 well format
Type: toxicity, cell-based
Parameters: dose 125 nL, time 70.5 hour; cytotoxicity at 70.5 h: concentration not given beside the values
Conditions: HepG2 cells, read-out: Inhibition

C1CCC(OCCN2CCN(CCOC3CCCCC3)CC2)CC1
cytotoxicity at 70.5 h: -5.88%

O=C(c1cnn[nH]1)N(CCCO)Cc1cccnc1
cytotoxicity at 70.5 h: 1.99%

Cc1cc(-n2cccn2)ccc1CN1CCC(O)(CN2CCCCC2)C1 (configuration not stated)
cytotoxicity at 70.5 h: 1.06%

Cc1noc(C)c1CCCNC(=O)C1CCN(C(=O)C2CCC2)CC1
cytotoxicity at 70.5 h: 5.79%

Cc1nc(C)c(C)c(N2CCC3(CCN(C)C3)C2)n1 (configuration not stated)
cytotoxicity at 70.5 h: -8.86%

COCCC(=O)NCc1cccnc1-n1cnc2ccccc21
cytotoxicity at 70.5 h: 6.94%

O=S1(=O)CCC(CNc2cc(-c3ccccc3)nc3ccnn23)C1 (configuration not stated)
cytotoxicity at 70.5 h: -9.95%

CCSc1ccc(C(=O)N2CCC3(CCC(=O)N(C)C3)CC2)s1
cytotoxicity at 70.5 h: -9.54%

CCc1nc(C)c(CC(=O)N2CCC3(CC2)OCCCC3O)c(=O)[nH]1 (configuration not stated)
cytotoxicity at 70.5 h: -6.44%

CN1CCN(Cc2ccc(-c3ccc(C(N)=O)cc3)nc2)CC1
cytotoxicity at 70.5 h: -7.94%

COCCN(C)C[C@@H]1CN(C(=O)c2ccc(C)cc2)C[C@@H]1CO
cytotoxicity at 70.5 h: -9.29%

COc1nc2c(cc1C(=O)N1CCCC1c1ccccn1)CCC2 (configuration not stated)
cytotoxicity at 70.5 h: 1.54%

COc1ccc(NC(=O)c2ccc(CN3CC[C@H](O)C3)cc2)c(OC)n1
cytotoxicity at 70.5 h: -7.69%

COCc1ccc(C(=O)N2CCCN(Cc3ccc(F)cc3)CC2)s1
cytotoxicity at 70.5 h: 30.1%

CS(=O)(=O)NCC(=O)NCc1cccnc1-n1cnc2ccccc21
cytotoxicity at 70.5 h: 17.2%

COc1ccc(F)c(CN2CCCC(O)(CNCC(C)(C)C)C2=O)c1 (configuration not stated)
cytotoxicity at 70.5 h: 13.1%

COCCC1CCCCN1C(=O)c1coc(COc2ccccc2F)n1 (configuration not stated)
cytotoxicity at 70.5 h: -1.11%

Cc1ccc([C@@H]2CN(C(=O)CCc3ccco3)C[C@H]2N(C)C)cc1
cytotoxicity at 70.5 h: 0.00383%

CC(C)Cc1ncc2c(n1)CN(c1nccc(N(C)C)n1)C2
cytotoxicity at 70.5 h: -8.35%

Cc1nc(N(C)C)nc(N2CCC3(CC2)CNC(=O)O3)c1C
cytotoxicity at 70.5 h: -5.15%

O=C(c1nc(=O)[nH]c2ccccc12)N1CCCC2(CCNC2)C1 (configuration not stated)
cytotoxicity at 70.5 h: 8.43%

C1CCC(c2nnc3sc(C4CCOC4)nn23)C1 (configuration not stated)
cytotoxicity at 70.5 h: -13.4%

O=c1cc(C2CCNCC2)nc(Cc2cccc(Cl)c2)[nH]1
cytotoxicity at 70.5 h: -5.11%

Cc1[nH]c2ccc(CNc3cc(C(N)=O)ccn3)cc2c1C
cytotoxicity at 70.5 h: -0.16%

CC(=O)NCC(=O)N1CCCC(C(=O)c2ccc(C(C)(C)C)cc2)C1 (configuration not stated)
cytotoxicity at 70.5 h: -0.592%

CC(C)N1CCCC(C(=O)N2CCN(c3cnn(C)c(=O)c3)CC2)C1 (configuration not stated)
cytotoxicity at 70.5 h: -7.17%

Cc1cc2ccccc2n1CCC(=O)N1CCC2(CC1)CNC(=O)C2
cytotoxicity at 70.5 h: 3.32%

CS(=O)(=O)N1CC[C@]2(O)CCN(CCCC(=O)c3ccccc3)C[C@@H]2C1
cytotoxicity at 70.5 h: -2.45%

Cc1cccc2[nH]c(-c3cn(C4CCNCC4)nn3)nc12
cytotoxicity at 70.5 h: -3.11%

O=C(NCCn1cccn1)Nc1cc(C(=O)N2CCOCC2)ccc1Cl
cytotoxicity at 70.5 h: -7.57%

Cc1nnsc1CN1C[C@H]2CC[C@@H]1CN(Cc1ccccn1)C2
cytotoxicity at 70.5 h: -6.51%

Cc1csc(CN2CC[C@@](O)(C3CCOCC3)[C@H](C)C2)n1
cytotoxicity at 70.5 h: -5.11%

Cc1nccn1-c1ccccc1CNC(=O)c1cn(CCN)nn1
cytotoxicity at 70.5 h: 1.29%

Cc1ccc([C@@H]2CN(S(=O)(=O)Cc3ccccc3)C[C@H]2N(C)C)cc1
cytotoxicity at 70.5 h: 1.88%

N#Cc1ccccc1C(=O)N1C[C@@H](CN2CCCCCC2)[C@@H](CO)C1
cytotoxicity at 70.5 h: -7.65%

Cc1ccc(C(N)=O)c(N2C[C@H]3OC(=O)N(C4CCCC4)[C@H]3C2)n1
cytotoxicity at 70.5 h: -11.9%

CSc1ccc(-c2nc(CN3CCC(CN)C3)c(C)o2)cc1 (configuration not stated)
cytotoxicity at 70.5 h: -3.18%

CCC(Nc1nc(C(C)C)nc2c1cnn2C)c1ccc(O)cc1 (configuration not stated)
cytotoxicity at 70.5 h: 5.5%

Cc1noc(CN(C)Cc2cnc(N3CCOCC3)nc2)n1
cytotoxicity at 70.5 h: -6.57%

CN(C)CC(=O)N1CCc2cccc(S(=O)(=O)N3CCOCC3)c2C1
cytotoxicity at 70.5 h: 0.694%

CN(C)Cc1nnc(C2CCN(c3ncccn3)CC2)n1C1CC1
cytotoxicity at 70.5 h: 12.1%

COc1ccc(-n2c(COC(C)C)n[nH]c2=O)cc1
cytotoxicity at 70.5 h: -6.26%

CCc1nc(CC2CN(c3ncnc4nc(C)cc(C)c34)CCO2)no1 (configuration not stated)
cytotoxicity at 70.5 h: -19%

CCNC(=O)[C@@H]1C[C@@H](N)CN1C(=O)c1[nH]c2ccccc2c1CC
cytotoxicity at 70.5 h: 18%

O=S(=O)(NC1CCCN(c2ncccn2)C1)N1CCCCCC1 (configuration not stated)
cytotoxicity at 70.5 h: -7.28%

Cc1ccc(C(N)=O)c(N2Cc3cnc(C(C)(C)C)nc3C2)n1
cytotoxicity at 70.5 h: -11.7%

O=C(O)CC1COCCN1Cc1ccccc1-c1ccccc1 (configuration not stated)
cytotoxicity at 70.5 h: 14.8%

O=C(C1CCCC1)N1CCC(Nc2ccncn2)CC1
cytotoxicity at 70.5 h: -3.92%

Cc1nn(C)cc1Cn1c(=O)ccc2ccccc21
cytotoxicity at 70.5 h: -3.85%

CCc1nc(C)sc1CN1CC[C@](C)(O)[C@H](C)C1
cytotoxicity at 70.5 h: -2.71%

Cc1nc[nH]c1-c1nccn1CCN1CCCC1=O
cytotoxicity at 70.5 h: 24.3%

O=C(Cn1ccnc1)N1CCCC(OCc2cccnc2)C1 (configuration not stated)
cytotoxicity at 70.5 h: 29.5%

COCC(=O)N1CCCC(C(=O)N(C)CCn2ccnc2C)C1 (configuration not stated)
cytotoxicity at 70.5 h: 3.1%

Cc1noc(-c2ccnc(Oc3cccc(CN4CCCC4)c3F)c2)n1
cytotoxicity at 70.5 h: -14.1%

COC(=O)CCCC(=O)N(C)CC1Cc2ccccc2CN1C (configuration not stated)
cytotoxicity at 70.5 h: -8.82%

COc1cc(N2C[C@@H](C)[C@](O)(C3CC3)C2)nc(N)n1
cytotoxicity at 70.5 h: -3.32%

O=C1NCCN(C(=O)CCN2CCCO2)C1c1cccc(F)c1 (configuration not stated)
cytotoxicity at 70.5 h: 4.41%

c1ccc(CN2C[C@@H]3CC[C@H](C2)N(Cc2nnc(C4CC4)o2)C3)cc1
cytotoxicity at 70.5 h: -8.78%

CN1CC2(CCN(c3nc(N)nc4c3CCNC4)CC2)OC1=O
cytotoxicity at 70.5 h: -8.95%

CCOC(=O)N[C@H]1C[C@@H](C(=O)NCc2cccc(Cl)c2)N(C)C1
cytotoxicity at 70.5 h: -20.9%

CCCC1COCCN1Cc1ccc(C(=O)O)cc1 (configuration not stated)
cytotoxicity at 70.5 h: -4.7%

CC(=O)NC1CCN(c2nc(N(C)C)nc3c2CCN(C(C)=O)C3)CC1
cytotoxicity at 70.5 h: -7.29%

Cc1c[nH]c(CN2CCCCC2CCc2cccc(O)c2)c(C)c1=O (configuration not stated)
cytotoxicity at 70.5 h: -5.58%

CN(Cc1ccc2c(c1)OCO2)C(=O)c1ccc(C2CCCO2)s1 (configuration not stated)
cytotoxicity at 70.5 h: -6.85%

COc1cccc(CNC2CCSC2)c1OC (configuration not stated)
cytotoxicity at 70.5 h: -7.09%

CN(Cc1ccccc1CN1CCCC1)c1ncnc2[nH]ccc12
cytotoxicity at 70.5 h: -4.3%

CN1CCC(NN2CCN(C)CC2)CC1
cytotoxicity at 70.5 h: -17.5%

CC1CCC(NCCCN2CCOCC2)CC1 (configuration not stated)
cytotoxicity at 70.5 h: -6.93%

Cc1noc(CN(C)C(=O)CCn2cnc3ccccc32)n1
cytotoxicity at 70.5 h: -13.9%

COc1ccc(CCC(C)Nc2cccc(SC)c2)cc1 (configuration not stated)
cytotoxicity at 70.5 h: 23.6%

CCOCc1nc2c(c(NC(COC)c3ccccn3)n1)CCNCC2 (configuration not stated)
cytotoxicity at 70.5 h: -3.42%

CNC(=O)[C@@H]1C[C@@H](N)CN1Cc1ccc2cccc(OC)c2n1
cytotoxicity at 70.5 h: -2.31%

CSCC[C@@H](CO)n1ccnc1-c1ccncc1
cytotoxicity at 70.5 h: -10.3%

Cc1ccsc1-c1nccn1CCN1CCCOC1=O
cytotoxicity at 70.5 h: -9.87%

CCN1CCN(C(=O)c2ccc3c(c2)NC(=O)CN3)[C@H]2CS(=O)(=O)C[C@H]21
cytotoxicity at 70.5 h: -8.61%

CC(C)[C@@H]1CN(C(=O)C2(c3ccccc3)CC2)C[C@H]1C(=O)O
cytotoxicity at 70.5 h: -3.69%

COc1ncc(CN2CCC3(CCCN(CC4CCCCC4)C3)C2)cn1 (configuration not stated)
cytotoxicity at 70.5 h: 26.8%

CCNc1ncc(C(=O)NCc2cccc(OC(F)(F)F)c2)cn1
cytotoxicity at 70.5 h: -16.5%

c1ccc(COCCN2CCc3[nH]cnc3C2c2ccoc2)cc1 (configuration not stated)
cytotoxicity at 70.5 h: 26%

COc1ccc(-n2cnnc2CC2CCNCC2)cc1
cytotoxicity at 70.5 h: 1.1%

CCN1CCc2[nH]cnc2C12CCN(c1ccc(Cl)cn1)CC2
cytotoxicity at 70.5 h: -4.3%

CCCN1CC2(CCN(C)CC2)CC1C(=O)NCc1cc(C)nn1C (configuration not stated)
cytotoxicity at 70.5 h: -12.4%

CCC(=O)Nc1cccc(OCC(=O)N2CC=CC2C(C)C)c1 (configuration not stated)
cytotoxicity at 70.5 h: -22.1%

Cc1nonc1CN(C)c1nc(-c2ccco2)nc2c1CCN(C)CC2
cytotoxicity at 70.5 h: -8.33%

Cn1nnnc1SCCNC(=O)c1c[nH]nc1C1CCCCC1
cytotoxicity at 70.5 h: -9.31%

O=C(CCc1nc(Cl)n[nH]1)N1C[C@@H](CN2CCCCCC2)[C@@H](CO)C1
cytotoxicity at 70.5 h: -4.12%

CCn1ccnc1C1CCCN(C(=O)c2sc(C)nc2C)C1 (configuration not stated)
cytotoxicity at 70.5 h: -7.2%

Cc1ccsc1CN(CCN(C)C)C(=O)C1=NNC(=O)CC1
cytotoxicity at 70.5 h: -9.85%

Cc1nc(N2CCCC(C)C2)nc2cc(S(C)(=O)=O)ccc12 (configuration not stated)
cytotoxicity at 70.5 h: -2.18%

CCn1cc(C2=CCN(CCCOc3ccccc3)CC2)cn1
cytotoxicity at 70.5 h: 0.137%

CC1(C)OC(=O)N(CCOc2ccc(F)cc2)C1=O
cytotoxicity at 70.5 h: -4.69%

Cc1cc(CN(C)C(=O)C(c2cccnc2)N2CCOCC2)n[nH]1 (configuration not stated)
cytotoxicity at 70.5 h: -10.1%

CC(Oc1ccc2c(c1)OCO2)C(=O)N1CCC(c2ncc[nH]2)CC1 (configuration not stated)
cytotoxicity at 70.5 h: -8.64%

O=C(NC1CCCC1)N1C[C@H]2CN(c3ccccn3)C[C@@]2(C(=O)O)C1
cytotoxicity at 70.5 h: 6.72%

Cc1nc(N(C)C)ncc1C(=O)N(Cc1ccncc1)CC1CCCO1 (configuration not stated)
cytotoxicity at 70.5 h: -4.9%

CCc1nnc(CN(C)Cc2cccc(C(=O)Nc3nccs3)c2)o1
cytotoxicity at 70.5 h: -1.25%

NCC1Cc2cc(-c3nccc(N4CCC(O)CC4)n3)cc(F)c2O1 (configuration not stated)
cytotoxicity at 70.5 h: 6.33%

Cc1ccccc1CN1CCN(C(=O)CN2CCOC2=O)CC1
cytotoxicity at 70.5 h: -6.85%

Cc1nc(CN2CCC(c3nc4ccccc4n3C)CC2)co1
cytotoxicity at 70.5 h: -24.4%

CN1C(=O)[C@H]2CC[C@@H]1CN(Cc1cccc(OCc3ccccn3)c1)C2
cytotoxicity at 70.5 h: -11.5%

CCc1nn(C)c(Cl)c1CN1CCN(c2ccc(Cl)nn2)CC1
cytotoxicity at 70.5 h: 13.1%

Cc1ccc(-c2cc(-c3c(C)nn(CCO)c3C)c(C#N)c(N)n2)cc1
cytotoxicity at 70.5 h: 0.809%

CC(C)CN1CC2(CCN(C(=O)C3CNC(=O)N3)CC2)CC1=O (configuration not stated)
cytotoxicity at 70.5 h: -9.7%

CCc1ccc2nc(C)cc(C(=O)N3C[C@H]4CCC[C@@]4(CO)C3)c2c1
cytotoxicity at 70.5 h: -8.92%

O=C(NCC1CCS(=O)(=O)C1)c1ccc2cccc(Cl)c2n1 (configuration not stated)
cytotoxicity at 70.5 h: -5.5%

Fc1ccc(C2(c3noc(CCN4CCCCO4)n3)CCOC2)cc1 (configuration not stated)
cytotoxicity at 70.5 h: -11.7%

O=C1NCC(c2ccc(F)cc2)Cc2[nH]c(CCN3CCCC3)nc21 (configuration not stated)
cytotoxicity at 70.5 h: -20.9%

COCCN(Cc1nccs1)C(=O)c1cc(-c2ccc(C)o2)n[nH]1
cytotoxicity at 70.5 h: -11.2%

Cc1cc(NCc2ccc(CO)cc2)n2nc(C)cc2n1
cytotoxicity at 70.5 h: -0.853%

CCCc1cncnc1N1CCC(NCc2cc3ccccc3[nH]2)CC1
cytotoxicity at 70.5 h: 8.09%

Cc1cc(NC(C)c2csc(C)n2)n2nc(C)c(C)c2n1 (configuration not stated)
cytotoxicity at 70.5 h: 5.97%

CN(CC1(CO)CCCC1)[C@@H]1c2ccccc2C2(CCNCC2)[C@H]1O
cytotoxicity at 70.5 h: -3.86%
